How the values were obtained:
[1] = molecular target: T1, human TYK2 kinase domain (JH1) (Homo sapiens, UniProt P29597); experiment: JH1 biochemical assay for TYK2 (ADP-Glo kinase assay, recombinant JH1 catalytic domain, JAK3-974 peptide, 10 μM ATP)
T1 construct: recombinantly generated catalytic kinase (also known as JH1) domain of human JAK1, JAK2, JAK3 and TYK2
T1 sequence (P29597 897-1176 limits assumed): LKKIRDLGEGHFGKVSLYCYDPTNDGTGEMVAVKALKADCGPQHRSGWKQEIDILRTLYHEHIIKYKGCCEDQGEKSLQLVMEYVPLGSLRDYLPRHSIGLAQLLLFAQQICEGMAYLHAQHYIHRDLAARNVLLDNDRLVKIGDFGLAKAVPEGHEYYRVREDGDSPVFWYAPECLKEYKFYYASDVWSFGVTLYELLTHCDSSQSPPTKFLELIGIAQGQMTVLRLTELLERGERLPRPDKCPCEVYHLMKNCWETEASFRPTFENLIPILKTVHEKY
In short: (§1)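 Compounds were titrated in 11 points of 3-fold dilution starting at 10 μM or 1 μM. Enzyme (JAK1 4 nM, JAK2 0.2 nM, JAK3 0.3 nM, TYK2 2 nM) and 50 μM peptide reacted for 100 minutes, followed by ADP-to-luminescence detection; IC50 by 4-parameter fit.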

[2] = molecular target: T2, human JAK1 kinase domain (JH1) (Homo sapiens, UniProt P23458); experiment: JH1 biochemical assay for JAK1 (ADP-Glo kinase assay, recombinant JH1 catalytic domain, JAK3-342 peptide, 35 μM ATP)
T2 construct: recombinantly generated catalytic kinase (also known as JH1) domain of human JAK1, JAK2, JAK3 and TYK2
T2 sequence (P23458 875-1153 limits assumed): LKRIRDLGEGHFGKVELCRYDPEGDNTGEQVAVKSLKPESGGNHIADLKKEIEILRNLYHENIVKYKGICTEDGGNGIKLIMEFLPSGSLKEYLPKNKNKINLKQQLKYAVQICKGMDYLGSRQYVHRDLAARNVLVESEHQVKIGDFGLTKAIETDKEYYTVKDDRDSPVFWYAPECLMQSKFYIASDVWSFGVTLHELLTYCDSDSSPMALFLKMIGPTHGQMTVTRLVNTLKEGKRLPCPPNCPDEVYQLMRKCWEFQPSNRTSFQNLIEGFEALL
In short: as §1

[3] = molecular target: T3, human JAK2 kinase domain (JH1) (Homo sapiens, UniProt O60674); experiment: JH1 biochemical assay for JAK2 (ADP-Glo kinase assay, recombinant JH1 catalytic domain, JAK3-974 peptide, 15 μM ATP)
T3 construct: recombinantly generated catalytic kinase (also known as JH1) domain of human JAK1, JAK2, JAK3 and TYK2
T3 sequence (O60674 849-1124 limits assumed): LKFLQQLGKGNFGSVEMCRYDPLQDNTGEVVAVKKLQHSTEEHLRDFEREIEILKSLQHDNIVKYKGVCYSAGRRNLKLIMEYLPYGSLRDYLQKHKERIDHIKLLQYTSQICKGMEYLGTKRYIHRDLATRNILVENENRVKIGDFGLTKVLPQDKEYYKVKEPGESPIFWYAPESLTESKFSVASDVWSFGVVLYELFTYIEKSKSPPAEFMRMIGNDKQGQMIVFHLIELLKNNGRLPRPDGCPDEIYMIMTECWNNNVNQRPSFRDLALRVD
In short: as §1

[4] = molecular target: T4, human JAK3 kinase domain (JH1) (Homo sapiens, UniProt P52333); experiment: JH1 biochemical assay for JAK3 (ADP-Glo kinase assay, recombinant JH1 catalytic domain, JAK3-974 peptide, 4 μM ATP)
T4 construct: recombinantly generated catalytic kinase (also known as JH1) domain of human JAK1, JAK2, JAK3 and TYK2
T4 sequence (P52333 822-1111 limits assumed): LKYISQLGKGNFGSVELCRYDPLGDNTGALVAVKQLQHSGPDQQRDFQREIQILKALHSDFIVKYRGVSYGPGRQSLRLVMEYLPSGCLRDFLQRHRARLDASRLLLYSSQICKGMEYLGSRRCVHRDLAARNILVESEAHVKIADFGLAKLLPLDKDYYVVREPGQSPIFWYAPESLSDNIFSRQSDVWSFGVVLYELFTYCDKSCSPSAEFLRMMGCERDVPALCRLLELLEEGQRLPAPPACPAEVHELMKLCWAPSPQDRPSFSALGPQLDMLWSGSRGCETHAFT
In short: as §1

[5] = molecular target: Tyk2 kinase activity on STAT4 in NK92 cells (Homo sapiens, UniProt P29597); experiment: pSTAT4 cell assay (MSD; NK92 cells, 30 ng/mL IL2 stimulation); format: cell-based; settings: 30 ng/mL IL2, 15 minutes
Tyk2 kinase activity on STAT4 in NK92 cells, sequence (P29597 whole entry): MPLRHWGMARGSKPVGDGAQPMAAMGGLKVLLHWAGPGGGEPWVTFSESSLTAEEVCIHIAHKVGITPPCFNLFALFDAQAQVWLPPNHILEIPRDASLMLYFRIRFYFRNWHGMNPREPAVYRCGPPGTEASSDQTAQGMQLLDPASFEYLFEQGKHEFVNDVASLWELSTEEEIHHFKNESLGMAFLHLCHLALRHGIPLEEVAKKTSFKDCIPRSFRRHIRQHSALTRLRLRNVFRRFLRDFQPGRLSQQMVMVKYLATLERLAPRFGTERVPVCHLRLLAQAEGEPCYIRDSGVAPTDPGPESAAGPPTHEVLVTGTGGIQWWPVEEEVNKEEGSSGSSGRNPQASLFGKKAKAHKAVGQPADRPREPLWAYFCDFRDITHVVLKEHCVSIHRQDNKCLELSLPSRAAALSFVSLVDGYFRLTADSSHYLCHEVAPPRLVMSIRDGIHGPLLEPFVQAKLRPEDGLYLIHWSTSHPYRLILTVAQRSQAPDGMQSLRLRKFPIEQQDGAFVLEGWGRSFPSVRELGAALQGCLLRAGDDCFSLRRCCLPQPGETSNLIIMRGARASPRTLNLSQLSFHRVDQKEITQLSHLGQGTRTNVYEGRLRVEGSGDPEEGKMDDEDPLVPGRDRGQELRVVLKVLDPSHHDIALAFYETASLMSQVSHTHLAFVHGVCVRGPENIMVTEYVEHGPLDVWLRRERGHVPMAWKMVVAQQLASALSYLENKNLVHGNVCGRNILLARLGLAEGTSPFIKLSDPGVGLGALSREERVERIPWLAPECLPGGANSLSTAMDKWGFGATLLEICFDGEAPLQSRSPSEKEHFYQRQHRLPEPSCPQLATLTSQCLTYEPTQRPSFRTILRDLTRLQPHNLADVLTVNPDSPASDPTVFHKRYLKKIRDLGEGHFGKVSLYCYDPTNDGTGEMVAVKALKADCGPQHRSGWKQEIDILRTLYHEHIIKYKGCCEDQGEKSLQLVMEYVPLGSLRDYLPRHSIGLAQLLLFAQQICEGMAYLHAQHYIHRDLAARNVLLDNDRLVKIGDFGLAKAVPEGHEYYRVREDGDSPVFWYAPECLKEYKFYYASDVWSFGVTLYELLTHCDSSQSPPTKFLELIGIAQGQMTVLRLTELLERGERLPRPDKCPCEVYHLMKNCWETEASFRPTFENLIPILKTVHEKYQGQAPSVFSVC
Procedure: The inhibitory potency of compounds of the disclosure against the Tyk2 kinase activity on STAT4 was evaluated using an MSD-platform plate-based assay format. NK92 cells natively expressing STAT4 and Tyk2 were serum-starved to reduce background phosphorylation levels, then cells were treated compounds for 1 hr with a 10-point four-fold dilution series starting at 10 μM. Cells were then stimulated with 30 ng/mL IL2 for 15 minutes. Cells were lysed and […] levels were quantitated using an MSD plate-based assay with anti-STAT4 antibodies. The data were normalized and the percent activity versus log concentration of compound were fitted with a 4-parameter logistic model to generate to generate IC50 curves.

[6] = molecular target: JAK2 kinase activity on STAT5 in TF1 cells (Homo sapiens, UniProt O60674); experiment: pSTAT5 cell assay (MSD; TF1 cells, 30 ng/mL IL-3 stimulation); format: cell-based; settings: 30 ng/mL IL-3, 15 minutes
JAK2 kinase activity on STAT5 in TF1 cells, sequence (O60674 whole entry): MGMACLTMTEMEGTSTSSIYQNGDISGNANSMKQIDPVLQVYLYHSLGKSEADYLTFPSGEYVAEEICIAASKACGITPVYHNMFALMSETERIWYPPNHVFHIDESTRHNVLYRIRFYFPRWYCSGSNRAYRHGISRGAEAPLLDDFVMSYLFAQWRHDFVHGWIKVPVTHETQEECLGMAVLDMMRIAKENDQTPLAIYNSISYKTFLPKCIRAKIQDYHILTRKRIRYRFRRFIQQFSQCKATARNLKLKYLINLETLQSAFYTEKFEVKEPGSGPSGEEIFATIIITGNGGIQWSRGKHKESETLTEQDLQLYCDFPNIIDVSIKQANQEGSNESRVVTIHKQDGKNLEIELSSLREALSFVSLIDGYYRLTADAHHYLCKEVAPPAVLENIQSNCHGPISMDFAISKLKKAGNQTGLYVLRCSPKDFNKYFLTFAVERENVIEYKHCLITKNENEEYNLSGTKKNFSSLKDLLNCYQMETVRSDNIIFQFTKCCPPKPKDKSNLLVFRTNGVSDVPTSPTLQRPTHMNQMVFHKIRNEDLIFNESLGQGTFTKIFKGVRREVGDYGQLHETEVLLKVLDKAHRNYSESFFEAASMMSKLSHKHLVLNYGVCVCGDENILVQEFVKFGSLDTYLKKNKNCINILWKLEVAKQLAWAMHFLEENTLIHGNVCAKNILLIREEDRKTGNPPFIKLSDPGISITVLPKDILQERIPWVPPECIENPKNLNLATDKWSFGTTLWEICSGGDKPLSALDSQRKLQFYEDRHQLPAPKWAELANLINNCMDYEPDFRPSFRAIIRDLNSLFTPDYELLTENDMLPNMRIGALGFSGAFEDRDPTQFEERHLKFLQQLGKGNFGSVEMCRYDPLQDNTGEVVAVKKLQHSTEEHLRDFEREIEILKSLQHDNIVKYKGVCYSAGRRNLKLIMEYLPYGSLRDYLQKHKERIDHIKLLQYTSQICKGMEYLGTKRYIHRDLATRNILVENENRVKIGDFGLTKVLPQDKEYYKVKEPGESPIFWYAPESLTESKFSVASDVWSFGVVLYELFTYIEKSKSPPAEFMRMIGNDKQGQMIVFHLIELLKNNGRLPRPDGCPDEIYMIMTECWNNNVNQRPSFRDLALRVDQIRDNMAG
Procedure: The inhibitory potency of compounds of the disclosure against the JAK2 kinase activity on STAT5 was evaluated using an MSD-platform plate-based assay format. TF1 cells natively expressing STAT5 and JAK2 were serum-starved to reduce background phosphorylation levels, then cells were treated with compounds of disclosure for 1 hour with a 10-point four-fold dilution series starting at 10 μM. Cells were then stimulated with 30 ng/mL IL-3 for 15 minutes. Cells were then lysed and pSTAT5 levels were quantitated using an MSD plate-based assay with anti-STAT5 antibodies. The data were normalized and the percent activity versus log concentration of compound was fitted with a 4-parameter logistic model to generate a curve and an IC50 value.

[7] = molecular target: JAK1 kinase activity on STAT3 in TF1 cells (Homo sapiens, UniProt P23458); experiment: pSTAT3 cell assay (MSD; TF1 cells, 30 ng/mL IL-6 stimulation); format: cell-based; settings: 30 ng/mL IL-6, 15 minutes
JAK1 kinase activity on STAT3 in TF1 cells, sequence (P23458 whole entry): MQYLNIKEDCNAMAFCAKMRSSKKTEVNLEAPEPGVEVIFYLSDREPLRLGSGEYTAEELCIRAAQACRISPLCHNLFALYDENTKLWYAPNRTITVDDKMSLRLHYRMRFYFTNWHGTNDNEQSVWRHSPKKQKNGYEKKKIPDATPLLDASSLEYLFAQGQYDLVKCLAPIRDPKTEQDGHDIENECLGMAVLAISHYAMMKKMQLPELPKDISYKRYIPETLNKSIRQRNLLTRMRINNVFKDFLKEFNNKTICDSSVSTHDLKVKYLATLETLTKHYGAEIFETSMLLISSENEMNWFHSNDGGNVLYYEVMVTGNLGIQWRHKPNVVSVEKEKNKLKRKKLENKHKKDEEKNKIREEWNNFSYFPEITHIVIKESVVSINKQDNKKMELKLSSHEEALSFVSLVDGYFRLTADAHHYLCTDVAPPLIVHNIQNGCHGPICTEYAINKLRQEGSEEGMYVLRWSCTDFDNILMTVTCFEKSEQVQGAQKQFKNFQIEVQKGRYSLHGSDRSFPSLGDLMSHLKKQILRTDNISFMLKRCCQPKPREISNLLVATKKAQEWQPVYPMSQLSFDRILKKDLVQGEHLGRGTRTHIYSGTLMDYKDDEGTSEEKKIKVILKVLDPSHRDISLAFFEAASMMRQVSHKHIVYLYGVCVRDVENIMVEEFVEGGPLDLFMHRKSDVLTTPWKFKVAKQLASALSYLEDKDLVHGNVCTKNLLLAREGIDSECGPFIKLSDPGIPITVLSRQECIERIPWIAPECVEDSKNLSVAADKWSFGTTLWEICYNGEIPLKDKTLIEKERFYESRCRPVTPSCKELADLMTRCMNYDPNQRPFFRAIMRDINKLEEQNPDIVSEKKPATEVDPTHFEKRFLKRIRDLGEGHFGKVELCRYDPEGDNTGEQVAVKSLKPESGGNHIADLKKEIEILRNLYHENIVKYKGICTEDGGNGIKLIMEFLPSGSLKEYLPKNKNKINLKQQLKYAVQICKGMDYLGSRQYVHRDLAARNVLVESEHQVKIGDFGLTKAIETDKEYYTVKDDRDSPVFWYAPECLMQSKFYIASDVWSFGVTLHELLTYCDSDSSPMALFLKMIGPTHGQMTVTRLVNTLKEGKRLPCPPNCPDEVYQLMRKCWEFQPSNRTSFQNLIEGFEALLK
Procedure: The inhibitory potency of compounds of the disclosure against the JAK1 kinase activity on STAT3 was evaluated using an MSD-platform plate-based assay format. TF1 cells natively expressing STAT3 and JAK1 were serum-starved to reduce background phosphorylation levels, then cells were treated with compounds of the disclosure for 1 hour with a 10-point four-fold dilution series starting at 10 μM. Cells were then stimulated with 30 ng/mL interleukin 6 (IL-6) for 15 minutes. Cells were lysed and pSTAT3 levels were quantitated using an MSD plate-based assay with anti-STAT3 antibodies. The data were normalized and the percent activity versus log concentration of compound was fitted with a 4-parameter logistic model to generate IC50 curves.

| IC50 ([1]; JH1 kinase domain, ADP-Glo) [µM] | IC50 ([2]; JH1 kinase domain, ADP-Glo) [µM] | IC50 ([3]; JH1 kinase domain, ADP-Glo) [µM] | IC50 ([4]; JH1 kinase domain, ADP-Glo) [µM] | IC50 [5] [µM] | IC50 [6] [µM] | IC50 [7] [µM] | IC50 ([1]; TYK2 JH1, ADP-Glo) [µM] | IC50 ([2]; JAK1 JH1, ADP-Glo) [µM] | IC50 ([3]; JAK2 JH1, ADP-Glo) [µM] | IC50 ([4]; JAK3 JH1, ADP-Glo) [µM] | SMILES |
| --- | --- | --- | --- | --- | --- | --- | --- | --- | --- | --- | --- |
| 0.05 to 0.1 | 1 to 5 | 0.1 to 1 | 0.1 to 1 | > 0.1 | > 10 | > 10 |  |  |  |  | COC[C@@]1(C#N)CCN(c2ccnn3cc(-c4cnn(C)c4)cc23)C1=O (single isomer, unassigned) [Example 40] |
| < 0.005 | < 0.1 | 0.1 to 1 | 0.1 to 1 | 0.05 to 0.1 | 1 to 5 | 1 to 5 |  |  |  |  | C[C@@H]1CN(c2ccnn3cc(-c4cnn([C@@H]5CC5(F)F)c4)cc23)C(=O)[C@]1(C#N)C1CC1 (single isomer, unassigned) [Example 155] |
| < 0.005 | 0.1 to 1 | 0.1 to 1 | < 0.1 | 0.05 to 0.1 | 1 to 5 | 1 to 5 |  |  |  |  | C[C@@H]1CN(c2ccnn3cc(-c4cnn([C@H]5CC5(F)F)c4)cc23)C(=O)[C@]1(C#N)C1CC1 (single isomer, unassigned) [Example 156] |
|  |  |  |  | 0.05 to 0.1 | 0.1 to 1 | 1 to 5 | < 0.005 | < 0.1 | < 0.1 | < 0.1 | C[C@@H]1CN(c2ccnn3cc(-c4cnn([C@H]5COCC(F)(F)C5)c4)cc23)C(=O)[C@]1(C#N)C1CC1 (single isomer, unassigned) [Example 327] |
| < 0.005 | < 0.1 | < 0.1 | < 0.1 | 0.005 to 0.02 | 0.1 to 1 | < 0.1 |  |  |  |  | C[C@@H]1CN(c2ccnc3[nH]c(-c4cnn(C)c4)cc23)C(=O)[C@]1(C#N)C1CC1 [Example 1, (3R,4S)-3-cyclopropyl-4-methyl-1-(2-(1-methyl-1H-pyrazol-4-yl)-1H-pyrrolo[2,3-b]pyridin-4-yl)-2-oxopyrrolidine-3-carbonitrile] |
| < 0.005 | < 0.1 | < 0.1 | < 0.1 | 0.02 to 0.05 | 1 to 5 | 0.1 to 1 |  |  |  |  | COc1cc(-c2cc3c(N4CC[C@@](C#N)(C5CC5)C4=O)ccnc3[nH]2)ccn1 [Example 3, (S)-3-cyclopropyl-1-(2-(2-methoxypyridin-4-yl)-1H-pyrrolo[2,3-b]pyridin-4-yl)-2-oxopyrrolidine-3-carbonitrile] |
| < 0.005 | < 0.1 | < 0.1 | < 0.1 | 0.02 to 0.05 | 0.1 to 1 | 0.1 to 1 |  |  |  |  | Cn1cc(-c2cc3c(N4CC[C@@](C#N)(C5CC5)C4=O)ccnc3[nH]2)cn1 [Example 4, (S)-3-cyclopropyl-1-(2-(1-methyl-1H-pyrazol-4-yl)-1H-pyrrolo[2,3-b]pyridin-4-yl)-2-oxopyrrolidine-3-carbonitrile] |
| > 0.1 | 1 to 5 | 0.1 to 1 | 1 to 5 | > 0.1 | > 10 | 5 to 10 |  |  |  |  | COc1cc(-c2cc3c(N4CC[C@](C#N)(C5CC5)C4=O)ccnc3[nH]2)ccn1 [Example 5, (R)-3-cyclopropyl-1-(2-(2-methoxypyridin-4-yl)-1H-pyrrolo[2,3-b]pyridin-4-yl)-2-oxopyrrolidine-3-carbonitrile] |
| 0.05 to 0.1 | 1 to 5 | 1 to 5 | 1 to 5 | > 0.1 | > 10 | > 10 |  |  |  |  | C[C@@H]1CN(c2ncnc3[nH]c(-c4cnn(C)c4)cc23)C(=O)[C@]1(C#N)C1CC1 [Example 6, (3R,4S)-3-cyclopropyl-4-methyl-1-(6-(1-methyl-1H-pyrazol-4-yl)-7H-pyrrolo[2,3-d]pyrimidin-4-yl)-2-oxopyrrolidine-3-carbonitrile] |
| 0.005 to 0.02 | 0.1 to 1 | 0.1 to 1 | 0.1 to 1 | > 0.1 | 1 to 5 | 1 to 5 |  |  |  |  | COc1cc(-c2cc3c(N4CC[C@@](C#N)(C5CC5)C4=O)ccnn3c2)ccn1 [Example 8, (S)-3-cyclopropyl-1-(6-(2-methoxypyridin-4-yl)pyrrolo[1,2-b]pyridazin-4-yl)-2-oxopyrrolidine-3-carbonitrile] |
| 0.005 to 0.02 | 0.1 to 1 | 0.1 to 1 | 0.1 to 1 | > 0.1 | 5 to 10 | 1 to 5 |  |  |  |  | Cn1cc(-c2cc3c(N4CC[C@@](C#N)(C5CC5)C4=O)ccnn3c2)cn1 [Example 9, (S)-3-cyclopropyl-1-(6-(1-methyl-1H-pyrazol-4-yl)pyrrolo[1,2-b]pyridazin-4-yl)-2-oxopyrrolidine-3-carbonitrile] |
| 0.005 to 0.02 | 0.1 to 1 | 0.1 to 1 | 0.1 to 1 | > 0.1 | > 10 | 1 to 5 |  |  |  |  | N#C[C@@]1(C2CC2)CCN(c2ccnn3cc(-c4cnn(C(F)F)c4)cc23)C1=O [Example 10, (S)-3-cyclopropyl-1-(6-(1-(difluoromethyl)-1H-pyrazol-4-yl)pyrrolo[1,2-b]pyridazin-4-yl)-2-oxopyrrolidine-3-carbonitrile] |
| 0.02 to 0.05 | 1 to 5 | 1 to 5 | 0.1 to 1 | > 0.1 | > 10 | > 10 |  |  |  |  | Cc1cc(-c2cc3c(N4CC[C@@](C#N)(C5CC5)C4=O)ccnn3c2)on1 [Example 11, (S)-3-cyclopropyl-1-(6-(3-methylisoxazol-5-yl)pyrrolo[1,2-b]pyridazin-4-yl)-2-oxopyrrolidine-3-carbonitrile] |
| 0.005 to 0.02 | 0.1 to 1 | 0.1 to 1 | 0.1 to 1 | > 0.1 | > 10 | 1 to 5 |  |  |  |  | Cn1cc(-c2cc3c(N4CC[C@@](C#N)(C5CC5)C4=O)ccnn3c2)c(F)n1 [Example 12, (S)-3-cyclopropyl-1-(6-(3-fluoro-1-methyl-1H-pyrazol-4-yl)pyrrolo[1,2-b]pyridazin-4-yl)-2-oxopyrrolidine-3-carbonitrile] |
| 0.05 to 0.1 | 1 to 5 | 1 to 5 | 1 to 5 | > 0.1 | > 10 | > 10 |  |  |  |  | C[C@H]1CN(c2ccnn3cc(-c4cnn(C)c4)cc23)C(=O)[C@]1(C#N)C1CC1 [Example 22, (3R,4R)-3-cyclopropyl-4-methyl-1-(6-(1-methyl-1H-pyrazol-4-yl)pyrrolo[1,2-b]pyridazin-4-yl)-2-oxopyrrolidine-3-carbonitrile] |
| 0.005 to 0.02 | 0.1 to 1 | 0.1 to 1 | 0.1 to 1 | 0.05 to 0.1 | 5 to 10 | 1 to 5 |  |  |  |  | CC[C@@H]1CN(c2ccnn3cc(-c4cnn(C)c4)cc23)C(=O)[C@]1(C#N)C1CC1 [Example 23, (3R,4S)-3-cyclopropyl-4-ethyl-1-(6-(1-methyl-1H-pyrazol-4-yl)pyrrolo[1,2-b]pyridazin-4-yl)-2-oxopyrrolidine-3-carbonitrile] |
| 0.05 to 0.1 | 1 to 5 | 5 to 10 | > 10 | > 0.1 | > 10 | > 10 |  |  |  |  | C[C@@H]1CN(c2ccnn3c(F)c(-c4cnn(C)c4)cc23)C(=O)[C@]1(C#N)C1CC1 [Example 28, (3R,4S)-3-cyclopropyl-1-(7-fluoro-6-(1-methyl-1H-pyrazol-4-yl)pyrrolo[1,2-b]pyridazin-4-yl)-4-methyl-2-oxopyrrolidine-3-carbonitrile] |
